Active and inactive are the calls of the source.
What was measured:
[1] = molecular target: Neuropeptide Y receptor type 2 (Homo sapiens, UniProt P49146); test: IC50 for human NPY-Y2 blockade – cell-based, counter-screen for NPY-Y1 antagonist project, dose response (AID 1278); format: functional
[2] = molecular target: T1, Kappa-type opioid receptor (Homo sapiens, UniProt P41145); format: functional
Mu-type opioid receptor = Mu-type opioid receptor (Homo sapiens, UniProt P35372); test: HTS Image-Based Screen for Agonists of the MOR Receptor. [Related pubchem assays (depositor defined):AID1777, AID1785, AID1786, AID2133]; format: functional;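 further: imaging of beta-arrestin GFP recruitment into spots after receptor activation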
[3] = molecular target: T1, Kappa-type opioid receptor; format: functional; remark: listed apart in the source
[4] = molecular target: Neuropeptide Y receptor type 1 (Homo sapiens, UniProt P25929); test: IC50 of human NPY-Y1 blockers – cell-based, dose response (AID 1277); format: functional
[5] = molecular target: T2, Delta-type opioid receptor (Homo sapiens, UniProt P41143); test: HTS Image-Based Screen for Antagonists of the DOR Receptor. [Related pubchem assays (depositor defined):AID1777, AID1785, AID1786, AID2133]; format: functional
[6] = molecular target: T2, Delta-type opioid receptor; test: HTS Image-Based Screen for Agonists of the DOR Receptor. [Related pubchem assays (depositor defined):AID1777, AID1786, AID2133]; format: functional
Insulin-degrading enzyme = Insulin-degrading enzyme (Homo sapiens, UniProt P14735); test: Dose Response: Fluorescence polarization-based cell-based high throughput dose response assay for inhibitors of insulin-degrading enzyme (IDE). [Related pubchem assays: 434962 (Primary screen (IDE inhibitors in singlicate)), 449730 (Counterscreen (Cytotoxicity in triplicate)), 435028 (Confirmation (IDE inhibitors in triplicate)), 434984 (Summary …; format: functional
Leucine aminopeptidase = molecular target: T3, Leucine aminopeptidase (Plasmodium falciparum 3D7, UniProt Q8IL11); test: P. falciparum M17LAP inhibitors, primary screen, biochemical, fluorogenic H-Leu-NHMec substrate, 1536-well (AID 1619); format: functional
T3 sequence (Q8IL11 whole entry): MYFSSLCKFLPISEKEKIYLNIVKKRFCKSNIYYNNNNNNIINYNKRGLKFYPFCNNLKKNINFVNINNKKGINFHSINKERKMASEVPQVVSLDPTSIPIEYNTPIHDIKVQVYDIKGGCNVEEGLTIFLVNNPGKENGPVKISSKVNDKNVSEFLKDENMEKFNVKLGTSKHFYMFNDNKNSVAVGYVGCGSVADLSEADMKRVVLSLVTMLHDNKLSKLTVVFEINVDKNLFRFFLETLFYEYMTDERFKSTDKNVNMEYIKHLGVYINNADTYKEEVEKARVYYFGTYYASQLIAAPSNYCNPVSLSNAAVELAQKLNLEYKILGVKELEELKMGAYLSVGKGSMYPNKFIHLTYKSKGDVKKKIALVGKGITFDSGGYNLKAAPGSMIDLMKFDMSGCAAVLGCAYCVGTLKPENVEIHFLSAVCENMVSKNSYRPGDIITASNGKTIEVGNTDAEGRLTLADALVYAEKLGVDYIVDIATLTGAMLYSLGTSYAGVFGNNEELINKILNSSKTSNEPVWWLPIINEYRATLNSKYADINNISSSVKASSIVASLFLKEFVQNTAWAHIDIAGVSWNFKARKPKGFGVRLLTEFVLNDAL

[7] = Counterscreen for IDE inhibitors: Luminescence-based cell-based high throughput dose response assay to identify compounds that are cytotoxic to HEK cells. [Related pubchem assays: 434962 (Primary screen (IDE inhibitors in singlicate)), 449730 (Counterscreen (Cytotoxicity in triplicate)), 435028 (Confirmation (IDE inhibitors in triplicate)) …; format: functional; details: HEK293
Aspartyl aminopeptidase = Aspartyl aminopeptidase (Plasmodium falciparum 3D7, UniProt Q8I2J3)
Large T antigen = Large T antigen (Simian virus 40, UniProt P03070); format: functional, Betapolyomavirus macacae;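 further: Confirmatory-stage PubChem screen for compounds that inhibit SV40 T antigen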
Procathepsin L = Procathepsin L (Homo sapiens, UniProt P07711)
cells [8] = format: functional, cell-based
[9] = molecular target: Induced myeloid leukemia cell differentiation protein Mcl-1 (Homo sapiens, UniProt Q07820); format: functional
[10] = mitochondrial function rescue without frataxin homolog – Friedreich's ataxia, plus single-dose screen, dose response (AID 1465); format: functional;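 further: yeast depleted of Yfh1p frataxin homolog grown on glycerol needing respiration; WST-1 tetrazolium dye reduction as measure of cellular dehydrogenase metabolic activity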
[11] = molecular target: T4, Serine/threonine-protein phosphatase (Candida dubliniensis (strain CD36 / CBS 7987 / NCPF 3949 / NRRLY-17841) (Yeast), UniProt B9W6M3); test: blockers of CaCl2-induced CDRE-lacZ signaling – S. cerevisiae, luminescence, secondary, dose response (AID 2388); format: functional, cell-based;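 further: yeast reporter cells carrying a calcineurin-responsive lacZ construct stimulated with calcium chloride; luminescent beta-galactosidase reporter signal in whole cells rather than isolated phosphatase activity; potency for inhibition where a drop in reporter signal means calcineurin blockade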
T4 sequence (B9W6M3 whole entry): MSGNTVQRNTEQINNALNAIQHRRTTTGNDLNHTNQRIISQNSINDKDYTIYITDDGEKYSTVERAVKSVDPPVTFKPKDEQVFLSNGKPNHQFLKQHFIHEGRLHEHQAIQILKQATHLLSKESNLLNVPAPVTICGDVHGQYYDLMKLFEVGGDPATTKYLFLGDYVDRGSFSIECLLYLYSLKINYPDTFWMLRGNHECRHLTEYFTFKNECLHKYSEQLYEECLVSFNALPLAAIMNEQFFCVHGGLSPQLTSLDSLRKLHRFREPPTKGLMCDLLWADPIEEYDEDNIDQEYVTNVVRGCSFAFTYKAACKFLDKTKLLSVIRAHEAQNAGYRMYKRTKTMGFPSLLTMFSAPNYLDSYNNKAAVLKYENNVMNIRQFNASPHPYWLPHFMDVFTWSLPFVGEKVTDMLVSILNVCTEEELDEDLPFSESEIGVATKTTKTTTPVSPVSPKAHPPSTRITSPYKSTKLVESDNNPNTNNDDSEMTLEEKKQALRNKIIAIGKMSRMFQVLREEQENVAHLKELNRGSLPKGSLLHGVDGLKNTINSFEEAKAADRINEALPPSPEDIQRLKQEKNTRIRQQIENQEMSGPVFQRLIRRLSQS

cells [12] = format: functional, cell-based; remark: listed apart in the source
[13] = molecular target: T5, Mannose-6-phosphate isomerase (Homo sapiens, UniProt P34949); test: MPI inhibition at elevated mannose 6-phosphate – biochemical, fluorescence intensity, high mannose 6-phosphate, primary screen (AID 1220)
T5 sequence (P34949 whole entry): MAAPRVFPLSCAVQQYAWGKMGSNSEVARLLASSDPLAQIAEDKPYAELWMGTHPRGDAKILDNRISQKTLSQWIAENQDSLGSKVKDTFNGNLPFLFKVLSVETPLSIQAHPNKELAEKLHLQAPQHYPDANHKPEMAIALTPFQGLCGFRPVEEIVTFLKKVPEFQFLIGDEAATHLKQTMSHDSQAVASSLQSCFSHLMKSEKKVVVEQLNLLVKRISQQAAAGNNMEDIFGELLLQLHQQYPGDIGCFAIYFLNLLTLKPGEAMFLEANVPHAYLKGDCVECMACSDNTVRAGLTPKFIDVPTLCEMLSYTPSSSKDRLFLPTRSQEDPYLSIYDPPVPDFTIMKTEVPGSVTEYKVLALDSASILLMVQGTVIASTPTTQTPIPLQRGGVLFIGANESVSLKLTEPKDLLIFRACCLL

[14] = molecular target: T5, Mannose-6-phosphate isomerase; test: MPI enzyme activity inhibition – biochemical, fluorescence intensity, coupled assay, primary screen (AID 1209)
[15] = molecular target: ATP-dependent molecular chaperone HSP82 (Candida albicans (strain WO-1) (Yeast), UniProt C4YTQ8); test: steroid-induced GRE reporter decrease in yeast – S. cerevisiae, luminescence, Hsp90 inhibitor project, dose response (AID 2400); format: functional, cell-based;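 further: beta-galactosidase luminescence from glucocorticoid response element reporter as proxy for Hsp90 function; inhibitor potency where signal loss means Hsp90 inhibition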
[16] = fluconazole-exposed Candida albicans growth modulators – fluorescence, retest, confirmation (AID 2467); format: functional, cell-based
Coagulation factor XII = molecular target: T6, Coagulation factor XII (Homo sapiens, UniProt P00748); format: functional;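 further: activated factor XIIa alpha cleaving a fluorogenic AMC peptide substrate; inhibitor potency from loss of enzyme activity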
T6 sequence (P00748 whole entry): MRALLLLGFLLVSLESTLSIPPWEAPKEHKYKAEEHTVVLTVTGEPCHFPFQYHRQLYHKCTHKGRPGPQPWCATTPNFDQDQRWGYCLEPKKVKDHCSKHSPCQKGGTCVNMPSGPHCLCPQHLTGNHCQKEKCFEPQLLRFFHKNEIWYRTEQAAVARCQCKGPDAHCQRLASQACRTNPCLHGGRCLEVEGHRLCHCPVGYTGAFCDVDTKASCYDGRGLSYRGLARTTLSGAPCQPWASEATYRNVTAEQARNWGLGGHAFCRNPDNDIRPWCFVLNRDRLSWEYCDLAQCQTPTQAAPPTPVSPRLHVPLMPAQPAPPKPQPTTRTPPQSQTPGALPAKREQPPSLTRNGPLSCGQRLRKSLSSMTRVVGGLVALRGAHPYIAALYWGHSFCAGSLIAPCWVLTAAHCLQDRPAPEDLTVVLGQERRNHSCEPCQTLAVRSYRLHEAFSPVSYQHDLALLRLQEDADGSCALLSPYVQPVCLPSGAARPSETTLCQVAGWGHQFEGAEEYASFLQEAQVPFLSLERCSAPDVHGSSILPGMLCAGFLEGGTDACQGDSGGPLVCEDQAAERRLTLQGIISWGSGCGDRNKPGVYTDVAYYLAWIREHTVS

[17] = NIH-3T3 fibroblast cytotoxicity, dose response, cytotoxicity control, cell-based, fluorescence, Alamar Blue, secondary assay (AID 2327); format: functional;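 further: NIH-3T3 mouse fibroblasts cultured with fluconazole at 8 µg/mL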
[18] = A Cell Based Assay for the Identification of Probe candidate Compounds with Anti- Venezuelan Equine Encephalitis virus. [Related pubchem assays: 2409, 2419, 1621, 2238, 2405, 2024, 2065, 2402, 2414, 1635, 1650, 2244 ]; format: functional
Vero = test: Vero cell viability after compound exposure – synthesized analogs, set II, cytotoxicity control for West Nile virus antiviral project, SAR follow-up (AID 2402); format: functional; details: Chlorocebus sabaeus

T2 sequence (P41143 whole entry): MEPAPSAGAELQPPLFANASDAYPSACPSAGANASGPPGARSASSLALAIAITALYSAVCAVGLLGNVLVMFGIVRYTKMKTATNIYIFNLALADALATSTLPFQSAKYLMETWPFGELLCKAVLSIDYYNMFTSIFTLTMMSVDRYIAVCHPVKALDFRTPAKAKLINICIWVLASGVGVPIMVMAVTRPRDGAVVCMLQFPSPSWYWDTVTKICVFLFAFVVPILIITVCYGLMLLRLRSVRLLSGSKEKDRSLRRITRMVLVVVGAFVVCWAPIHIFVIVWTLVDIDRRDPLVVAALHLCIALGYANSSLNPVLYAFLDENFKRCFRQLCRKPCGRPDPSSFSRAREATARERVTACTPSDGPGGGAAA
T1 sequence (P41145 whole entry): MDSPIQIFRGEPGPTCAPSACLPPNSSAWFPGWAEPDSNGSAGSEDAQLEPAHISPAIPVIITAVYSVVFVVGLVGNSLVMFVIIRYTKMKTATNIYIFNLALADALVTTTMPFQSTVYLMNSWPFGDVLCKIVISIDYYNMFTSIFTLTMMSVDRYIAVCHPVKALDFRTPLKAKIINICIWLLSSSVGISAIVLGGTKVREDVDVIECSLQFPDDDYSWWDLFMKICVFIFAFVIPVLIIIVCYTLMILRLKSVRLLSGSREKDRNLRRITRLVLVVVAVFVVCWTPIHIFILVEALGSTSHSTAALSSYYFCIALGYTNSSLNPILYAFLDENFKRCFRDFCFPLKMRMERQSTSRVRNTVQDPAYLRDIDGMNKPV
Chain of Mu-type opioid receptor (P35372 whole entry): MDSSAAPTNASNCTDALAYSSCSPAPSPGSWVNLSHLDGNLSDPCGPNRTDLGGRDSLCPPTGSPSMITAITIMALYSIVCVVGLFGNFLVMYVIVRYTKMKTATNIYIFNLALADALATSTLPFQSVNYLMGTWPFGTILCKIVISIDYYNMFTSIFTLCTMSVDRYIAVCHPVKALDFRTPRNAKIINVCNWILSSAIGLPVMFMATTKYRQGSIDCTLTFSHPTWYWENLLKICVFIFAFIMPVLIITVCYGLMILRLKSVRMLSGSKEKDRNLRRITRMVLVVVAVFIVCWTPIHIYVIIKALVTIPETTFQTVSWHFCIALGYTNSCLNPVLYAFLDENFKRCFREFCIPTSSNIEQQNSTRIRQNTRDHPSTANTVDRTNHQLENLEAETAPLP
Chain of Large T antigen (P03070 whole entry): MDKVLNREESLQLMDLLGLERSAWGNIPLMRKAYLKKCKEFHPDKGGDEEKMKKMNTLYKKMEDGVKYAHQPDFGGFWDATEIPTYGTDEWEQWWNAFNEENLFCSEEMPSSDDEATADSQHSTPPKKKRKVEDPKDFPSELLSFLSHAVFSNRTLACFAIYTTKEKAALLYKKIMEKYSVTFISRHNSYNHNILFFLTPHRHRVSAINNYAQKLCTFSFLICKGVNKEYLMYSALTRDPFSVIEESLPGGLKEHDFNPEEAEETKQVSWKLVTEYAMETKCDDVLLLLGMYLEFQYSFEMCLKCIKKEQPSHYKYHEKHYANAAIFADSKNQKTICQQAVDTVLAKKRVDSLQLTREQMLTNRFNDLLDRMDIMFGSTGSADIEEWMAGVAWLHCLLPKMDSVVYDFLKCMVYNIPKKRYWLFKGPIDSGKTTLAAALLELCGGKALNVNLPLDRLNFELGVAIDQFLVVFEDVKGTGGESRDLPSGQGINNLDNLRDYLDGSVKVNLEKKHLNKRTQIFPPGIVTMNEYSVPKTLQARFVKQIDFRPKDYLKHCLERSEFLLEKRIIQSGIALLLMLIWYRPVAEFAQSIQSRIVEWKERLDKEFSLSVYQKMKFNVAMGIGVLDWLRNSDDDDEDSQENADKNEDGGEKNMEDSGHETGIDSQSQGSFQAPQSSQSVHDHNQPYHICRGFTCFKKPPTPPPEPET
Chain of Induced myeloid leukemia cell differentiation protein Mcl-1 (Q07820 whole entry): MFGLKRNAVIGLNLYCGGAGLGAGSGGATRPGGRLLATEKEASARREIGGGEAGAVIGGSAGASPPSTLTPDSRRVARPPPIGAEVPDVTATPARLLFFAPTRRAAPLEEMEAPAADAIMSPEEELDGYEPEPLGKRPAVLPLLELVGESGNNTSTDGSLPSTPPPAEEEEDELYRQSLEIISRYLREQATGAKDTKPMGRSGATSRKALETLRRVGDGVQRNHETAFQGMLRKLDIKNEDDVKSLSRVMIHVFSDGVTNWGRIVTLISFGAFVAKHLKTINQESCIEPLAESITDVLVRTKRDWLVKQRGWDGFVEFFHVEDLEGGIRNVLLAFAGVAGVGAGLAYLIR
Chain of Insulin-degrading enzyme (P14735 whole entry): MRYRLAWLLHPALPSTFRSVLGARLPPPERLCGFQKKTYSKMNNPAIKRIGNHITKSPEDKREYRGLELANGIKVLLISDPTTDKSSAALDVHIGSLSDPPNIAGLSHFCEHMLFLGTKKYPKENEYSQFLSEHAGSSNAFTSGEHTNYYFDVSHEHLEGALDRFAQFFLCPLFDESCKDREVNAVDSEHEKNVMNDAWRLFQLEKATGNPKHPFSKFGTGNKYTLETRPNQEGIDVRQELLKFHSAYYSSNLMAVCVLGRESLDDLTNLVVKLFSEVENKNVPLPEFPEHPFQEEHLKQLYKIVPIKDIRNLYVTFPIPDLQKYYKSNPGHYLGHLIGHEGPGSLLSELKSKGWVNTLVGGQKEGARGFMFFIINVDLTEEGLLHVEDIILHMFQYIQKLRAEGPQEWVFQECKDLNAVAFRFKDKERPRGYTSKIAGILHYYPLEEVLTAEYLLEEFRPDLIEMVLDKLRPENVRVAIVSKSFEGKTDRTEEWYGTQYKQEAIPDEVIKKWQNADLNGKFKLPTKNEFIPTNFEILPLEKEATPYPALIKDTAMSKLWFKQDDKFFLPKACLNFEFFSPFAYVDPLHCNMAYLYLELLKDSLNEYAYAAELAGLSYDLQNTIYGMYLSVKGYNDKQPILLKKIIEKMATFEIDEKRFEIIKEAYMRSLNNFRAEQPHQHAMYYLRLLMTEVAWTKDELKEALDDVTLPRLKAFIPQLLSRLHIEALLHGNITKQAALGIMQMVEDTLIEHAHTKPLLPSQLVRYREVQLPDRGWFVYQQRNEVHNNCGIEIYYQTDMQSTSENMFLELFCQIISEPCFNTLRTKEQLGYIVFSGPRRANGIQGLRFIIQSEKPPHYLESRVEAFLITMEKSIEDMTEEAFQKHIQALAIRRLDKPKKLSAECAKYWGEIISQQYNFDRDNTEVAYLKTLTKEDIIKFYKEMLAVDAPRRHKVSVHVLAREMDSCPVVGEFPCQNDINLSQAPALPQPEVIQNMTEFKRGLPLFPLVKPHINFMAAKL
Chain of Procathepsin L (P07711 whole entry): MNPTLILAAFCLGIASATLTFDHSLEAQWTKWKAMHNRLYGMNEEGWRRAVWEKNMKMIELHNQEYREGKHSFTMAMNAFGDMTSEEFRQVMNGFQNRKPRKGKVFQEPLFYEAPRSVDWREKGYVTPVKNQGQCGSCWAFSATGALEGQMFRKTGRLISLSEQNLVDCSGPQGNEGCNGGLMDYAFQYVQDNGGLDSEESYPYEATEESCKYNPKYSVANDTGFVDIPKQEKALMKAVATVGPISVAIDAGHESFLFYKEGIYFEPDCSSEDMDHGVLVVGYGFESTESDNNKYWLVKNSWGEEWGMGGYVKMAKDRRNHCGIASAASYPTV
Chain of Aspartyl aminopeptidase (Q8I2J3 whole entry): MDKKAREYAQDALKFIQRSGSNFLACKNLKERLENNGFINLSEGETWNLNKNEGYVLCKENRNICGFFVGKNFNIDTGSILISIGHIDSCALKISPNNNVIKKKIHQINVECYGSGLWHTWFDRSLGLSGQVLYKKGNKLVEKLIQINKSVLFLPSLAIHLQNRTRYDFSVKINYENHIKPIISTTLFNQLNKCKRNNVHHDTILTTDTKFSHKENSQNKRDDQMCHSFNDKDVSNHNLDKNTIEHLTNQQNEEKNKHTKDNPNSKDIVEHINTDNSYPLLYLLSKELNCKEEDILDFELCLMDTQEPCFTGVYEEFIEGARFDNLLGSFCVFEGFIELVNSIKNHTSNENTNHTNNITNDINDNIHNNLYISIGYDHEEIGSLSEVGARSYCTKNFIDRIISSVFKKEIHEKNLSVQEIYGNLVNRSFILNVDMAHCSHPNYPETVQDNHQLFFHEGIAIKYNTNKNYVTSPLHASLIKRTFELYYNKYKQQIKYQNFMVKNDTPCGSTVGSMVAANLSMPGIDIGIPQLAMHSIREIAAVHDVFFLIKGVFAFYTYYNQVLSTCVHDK
Chain of Neuropeptide Y receptor type 2 (P49146 whole entry): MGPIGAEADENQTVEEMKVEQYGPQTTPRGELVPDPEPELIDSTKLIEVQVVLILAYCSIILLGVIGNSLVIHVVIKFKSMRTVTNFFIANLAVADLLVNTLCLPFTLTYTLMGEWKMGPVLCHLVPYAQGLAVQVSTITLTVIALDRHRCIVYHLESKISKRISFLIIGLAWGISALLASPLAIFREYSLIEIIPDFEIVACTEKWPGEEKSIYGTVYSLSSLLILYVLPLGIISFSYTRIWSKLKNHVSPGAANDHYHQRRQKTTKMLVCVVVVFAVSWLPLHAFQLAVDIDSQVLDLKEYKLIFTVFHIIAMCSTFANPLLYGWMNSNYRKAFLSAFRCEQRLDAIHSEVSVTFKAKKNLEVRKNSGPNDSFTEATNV
Chain of Neuropeptide Y receptor type 1 (P25929 whole entry): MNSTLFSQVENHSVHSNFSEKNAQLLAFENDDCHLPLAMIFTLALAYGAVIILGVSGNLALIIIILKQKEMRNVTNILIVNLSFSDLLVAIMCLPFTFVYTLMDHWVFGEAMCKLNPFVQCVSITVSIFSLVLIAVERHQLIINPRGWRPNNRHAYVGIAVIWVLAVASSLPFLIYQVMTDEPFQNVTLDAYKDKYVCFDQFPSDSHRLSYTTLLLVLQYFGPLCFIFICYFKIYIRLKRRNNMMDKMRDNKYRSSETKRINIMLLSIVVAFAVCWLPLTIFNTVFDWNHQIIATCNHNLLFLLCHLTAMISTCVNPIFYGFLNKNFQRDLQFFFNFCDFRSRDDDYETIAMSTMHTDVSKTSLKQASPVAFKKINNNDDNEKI

## O=C(c1cnccn1)N(Cc1ccco1)C1(C(=O)NC2CCCCC2)CCCCC1
[1]
  IC50: > 35 µM (not active)
[2]
  EC50: 2.39 µM
Mu-type opioid receptor
  EC50: > 32 µM (inactive)
[3]
  EC50: 1.32 µM
[4]
  IC50: > 35 µM (not active)
[5]
  IC50: > 32 µM (inactive)
[6]
  EC50: > 32 µM (inactive)

## O=C(O)CC12CC3CC(C1)CC(n1ncc(NCc4ccc(F)cc4Cl)c(Cl)c1=O)(C3)C2
Insulin-degrading enzyme
  IC50: 18.1 µM (not active)
Leucine aminopeptidase
  IC50: 32.1 µM (active)
[7]
  IC50: > 55.7 µM (not active)

## N/C(=N\N=C\c1ccc(O)cc1O)N[N+](=O)[O-]
Aspartyl aminopeptidase
  IC50: 4.61 µM (active)
Large T antigen
  IC50: 8.78 µM (active)
Procathepsin L
  IC50: > 59.6 µM (not active)

## O=C(N/N=C/c1ccc(O)c(O)c1O)/C(=C/c1ccc([N+](=O)[O-])cc1)NC(=O)c1ccccc1
Cells [8]
  EC50: > 350 µM (not active)
[9]
  IC50: 19.3 µM (active)
[10]
  EC50: > 100 µM (active)
[11]
  EC50: > 180 µM (inactive)
Cells [12]
  EC50: > 350 µM (not active)
[13]
  IC50: > 50 µM (not active)
[14]
  IC50: > 50 µM (not active)
[15]
  EC50: > 160 µM (inactive)
[16]
  EC50: 0.587 µM (active)
Coagulation factor XII
  IC50: > 50 µM (inactive)
[17]
  EC50: > 160 µM (inactive)

## COc1ccc(Cn2nc(C)cc2OC(=O)c2ccccc2)cc1
[18]
  IC50: > 133 µM (active)
Vero
  CC50: > 200 µM (active)
